# Reference: patent US20260262647A1, “Synergistic Compositions Containing Guanidine” (Thor GmbH, priority 2023, published 2026)
# Where “and” joins values, the source holds several entries; their conditions need not be identical. Equal values may be shown once.
# What was measured:
# Assay type in all cases: cell-based
# [1] = system: Pseudomonas spec. DSM 115322; test: Minimum inhibitory concentrations and synergy index in Müller-Hinton broth; details: for QA: Concentration of guanidine as the sole agent that shows an endpoint: guanidine (added as guanidine hydrochloride) alone, 48 hours at 30° C.
# Experimental: Test organisms used were Gram-negative bacterial species from the group of pseudomonads, Pseudomonas putida DSM 115323 and Pseudomonas spec. DSM 115322. For this purpose, mixtures with different concentrations of the respective active substances were prepared and tested for their effect on the pseudomonads. The test was run in Müller-Hinton broth MHB with a cell density of 10^6 microbes per ml. When organic acids are used as a combination partner with the guanidine, MHB was adjusted to pH 5.5.
# The incubation was run in microplates at 30° C. for 48 hours. After 48 hours, the batches were evaluated for turbidity resulting from growth, and optical density was additionally determined photometrically. In this way, the minimum inhibitory concentrations (MICs) of the two actives were determined individually and in combination.
# The calculation was done according to the standard method of F. C. Kull et al., Applied Microbiology, vol. 9 (1961), p. 538.
# This involves calculating the synergy index (SI) by the following formula:
# [formula] • Qa=concentration of component A in the A+B mixture • QA=concentration of component A as the sole biocide • Qb=concentration of component B in the A+B mixture • QB=concentration of component B as the sole biocide
# If the synergy index is greater than 1, this means that there is antagonism. If the synergy index assumes the value 1, this means that the effect of the two biocides/compounds is additive. If the synergy index assumes a value of less than 1, this means that there is synergism between the two biocides/compounds.
# [2] = system: bacteria mixture B; test: Emulsion paint inoculated once with bacteria mixture B, semiquantitative growth evaluation; set-up: key: 0: No growth; Minimal growth, 1 to 10 colonies visible over the entire streak; 2: Light growth, maximum 100 colonies; Moderate growth, maximum 300 to 400 colonies; Uniform growth, >400 colonies, single colonies still clearly recognizable; 5: Heavy growth, too many colonies to count, but no growth over the entire streak; 6: Full growth, barely any single colonies still apparent, growth over the entire streak; details: +6000 ppm guanidine hydrochloride (3708 ppm guanidine)
# From the text: In examples 35 to 38 below, synergistic interaction between guanidine and antimicrobial substances with respect to microbial infestation was studied using an emulsion paint and a laundry detergent or cleaning composition by adding particular amounts of guanidine salts and isothiazolinones and examining their stability against microbial infestation: […] The laundry detergent was a heavy-duty laundry detergent without preservatives (pH 8.1), and the cleaning composition was an all-purpose detergent without preservatives (pH 7.6), each likewise made in the laboratory, without addition of the otherwise usual conventional preservatives. To each paint was added—individually and in combination—particular concentrations of guanidinium hydrochloride, benzisothiazolinone (BIT), and a mixture of chloromethylisothiazolinone (CIT) and methylisothiazolinone (MIT). The laundry detergent and the cleaning composition were admixed with particular concentrations of guanidinium hydrochloride and benzisothiazolinone (BIT). The resultant batches of the paint thus prepared were inoculated with a mixture of different bacteria species (bacteria mixture B); the batches of the laundry detergent and cleaning compositions thus prepared were inoculated with a yeast mixture. • Pseudomonas spp. (Pseudomonas oleovorans group) DSM 33933 • Pseudomonas aeruginosa DSM 33935 • Pseudomonas oleovorans DSM 33936 • Pseudomonas spec. DSM 33937 • Pseudomonas aeruginosa DSM 33938 […] The cell suspension of the bacteria mixture was produced by growing the individual bacteria at 30° C. for 24 h in liquid culture on a shaker. The growth medium used for the bacteria was Müller-Hinton liquid medium. After growing, the individual liquid cultures were centrifuged, and the cells were resuspended in physiological saline solution. […] The cell count of the inoculum was determined in each case by chamber counting. […] The streaked agar plates were then incubated at 30° C. for 48 hours (bacteria) or at 25° C. for 72 hours (yeasts). After incubation, the bacterial or yeast colonies that have grown on the agar plates were visually evaluated and quantified according to the following scheme: [table]
# [3] = system: yeast mixture; test: Laundry detergent inoculated once with yeast mixture, semiquantitative growth evaluation; set-up: key: 0: No growth; Minimal growth, 1 to 10 colonies visible over the entire streak; 2: Light growth, maximum 100 colonies; Moderate growth, maximum 300 to 400 colonies; Uniform growth, >400 colonies, single colonies still clearly recognizable; 5: Heavy growth, too many colonies to count, but no growth over the entire streak; 6: Full growth, barely any single colonies still apparent, growth over the entire streak; details: Example 37, laundry detergent, +8000 ppm guanidine hydrochloride (4944 ppm guanidine)
# From the text: In examples 35 to 38 below, synergistic interaction between guanidine and antimicrobial substances with respect to microbial infestation was studied using an emulsion paint and a laundry detergent or cleaning composition by adding particular amounts of guanidine salts and isothiazolinones and examining their stability against microbial infestation: […] The laundry detergent was a heavy-duty laundry detergent without preservatives (pH 8.1), and the cleaning composition was an all-purpose detergent without preservatives (pH 7.6), each likewise made in the laboratory, without addition of the otherwise usual conventional preservatives. To each paint was added—individually and in combination—particular concentrations of guanidinium hydrochloride, benzisothiazolinone (BIT), and a mixture of chloromethylisothiazolinone (CIT) and methylisothiazolinone (MIT). The laundry detergent and the cleaning composition were admixed with particular concentrations of guanidinium hydrochloride and benzisothiazolinone (BIT). The resultant batches of the paint thus prepared were inoculated with a mixture of different bacteria species (bacteria mixture B); the batches of the laundry detergent and cleaning compositions thus prepared were inoculated with a yeast mixture. • Pichia manshurica DSM 12249 • Rhodotorula mucilaginosa DSM 12248 • Candida boidinii DSM 13622 • Candida albicans DSM 1386 […] Further steps for establishment of a cell count of the inoculum suspension of 10^8/ml were effected analogously to the production of the bacteria suspension. […] The streaked agar plates were then incubated at 30° C. for 48 hours (bacteria) or at 25° C. for 72 hours (yeasts). After incubation, the bacterial or yeast colonies that have grown on the agar plates were visually evaluated and quantified according to the following scheme: [table]
compound,measurement,setting,value
N=C(N)N [guanidine],QA: Concentration of guanidine as the sole agent that shows an endpoint,[1]; MHB adjusted to pH 5.5,12359 ppm
same,QA: Concentration of guanidine as the sole agent that shows an endpoint,[1]; MHB,9269 ppm and 9105 ppm
same,Synergy index Qa/QA + Qb/QB,[1]; guanidine and AEPD,1.00
same,Synergy index Qa/QA + Qb/QB,[1]; guanidine and AMP,1.00
same,Synergy index Qa/QA + Qb/QB,[1]; guanidine and BBIT,1.00
same,Synergy index Qa/QA + Qb/QB,[1]; guanidine and BIT,1.00
same,Synergy index Qa/QA + Qb/QB,[1]; guanidine and DBDCB,1.00
same,Synergy index Qa/QA + Qb/QB,[1]; guanidine and DBNPA,1.00
same,Synergy index Qa/QA + Qb/QB,[1]; guanidine and EDTA,1.00
same,Synergy index Qa/QA + Qb/QB,[1]; guanidine and EHG,1.00
same,Synergy index Qa/QA + Qb/QB,[1]; guanidine and HEDP,1.00
same,Synergy index Qa/QA + Qb/QB,[1]; guanidine and IPBC,1.00
same,Synergy index Qa/QA + Qb/QB,[1]; guanidine and MBIT,1.00
same,Synergy index Qa/QA + Qb/QB,[1]; guanidine and MEA,1.00
same,Synergy index Qa/QA + Qb/QB,[1]; guanidine and MIT,1.00
same,Synergy index Qa/QA + Qb/QB,[1]; guanidine and OIT,1.00
same,Synergy index Qa/QA + Qb/QB,"[1]; guanidine and benzoic acid, pH 5.5",1.00
same,Synergy index Qa/QA + Qb/QB,[1]; guanidine and benzyl alcohol,1.00
same,Synergy index Qa/QA + Qb/QB,[1]; guanidine and bronopol,1.00
same,Synergy index Qa/QA + Qb/QB,"[1]; guanidine and citric acid, pH 5.5",1.00
same,Synergy index Qa/QA + Qb/QB,"[1]; guanidine and heptane-1,2-diol",1.00
same,Synergy index Qa/QA + Qb/QB,"[1]; guanidine and hexane-1,2-diol",1.00
same,Synergy index Qa/QA + Qb/QB,[1]; guanidine and hexylglycerol,1.00
same,Synergy index Qa/QA + Qb/QB,[1]; guanidine and isopropanol,1.00
same,Synergy index Qa/QA + Qb/QB,"[1]; guanidine and lactic acid, pH 5.5",1.00
same,Synergy index Qa/QA + Qb/QB,[1]; guanidine and oPP,1.00
same,Synergy index Qa/QA + Qb/QB,"[1]; guanidine and octane-1,2-diol",1.00
same,Synergy index Qa/QA + Qb/QB,"[1]; guanidine and pentane-1,2-diol",1.00
same,Synergy index Qa/QA + Qb/QB,[1]; guanidine and phenethyl alcohol,1.00
same,Synergy index Qa/QA + Qb/QB,[1]; guanidine and phenoxyethanol,1.00
same,Synergy index Qa/QA + Qb/QB,[1]; guanidine and phenylpropanol,1.00
same,Synergy index Qa/QA + Qb/QB,[1]; guanidine and pyrithione,1.00
same,Synergy index Qa/QA + Qb/QB,"[1]; guanidine and salicylic acid, pH 5.5",1.00
same,Synergy index Qa/QA + Qb/QB,"[1]; guanidine and sorbic acid, pH 5.5",1.00
same,Bacterial growth,"[2]; Example 35, emulsion paint, Day 1",6
same,Bacterial growth,"[2]; Example 35, emulsion paint, Day 6",6
same,Bacterial growth,"[2]; Example 36, emulsion paint, Day 1",6
same,Bacterial growth,"[2]; Example 36, emulsion paint, Day 6",6
same,Bacterial growth,[3]; Day 1,6
same,Bacterial growth,[3]; Day 3,6
